# Source: ChEMBL document CHEMBL2440076, “New triarylpyrazoles as broad-spectrum anticancer agents: design, synthesis, and biological evaluation” (Eur J Med Chem, 2013)
# What was measured:
# Format in all cases: functional
# COLO 205 = assay: Growth inhibition of human COLO205 cells assessed as cell growth at 3X10'-7 M after 48 hrs by sulforhodamine B assay; details: COLO 205, 48 h, read-out: Activity
# NCI-H322M = assay: Growth inhibition of human NCI-H322M cells assessed as cell growth at 3X10'-6 M after 48 hrs by sulforhodamine B assay; details: read-out: Activity
# UO-31 = assay: Growth inhibition of human UO31 cells assessed as cell growth at 3X10'-8 M after 48 hrs by sulforhodamine B assay; details: UO-31, 48 h, read-out: Activity
# 786-0 [1] = assay: Growth inhibition of human 786-0 cells assessed as cell growth at 3X10'-7 M after 48 hrs by sulforhodamine B assay; details: 786-0, 48 h, read-out: Activity
# Malme-3M [2] = assay: Growth inhibition of human MALME-3M cells assessed as cell growth at 3X10'-5 M after 48 hrs by sulforhodamine B assay; details: read-out: Activity
# HOP-92 [3] = assay: Growth inhibition of human HOP92 cells assessed as cell growth at 3X10'-9 M after 48 hrs by sulforhodamine B assay; details: HOP-92, 48 h, read-out: Activity
# [4] = Growth inhibition of human NCI-ADR-RES cells assessed as cell growth at 3X10'-5 M after 48 hrs by sulforhodamine B assay; details: read-out: Activity
# SK-MEL-5 = assay: Growth inhibition of human SK-MEL-5 cells assessed as cell growth at 3X10'-8 M after 48 hrs by sulforhodamine B assay; details: SK-MEL-5, 48 h, read-out: Activity
# MCF7 = assay: Growth inhibition of human MCF7 cells assessed as cell growth at 3X10'-5 M after 48 hrs by sulforhodamine B assay; details: MCF7, 48 h, read-out: Activity
# MDA-MB-435 = assay: Growth inhibition of human MDA-MB-435 cells assessed as cell growth at 3X10'-9 M after 48 hrs by sulforhodamine B assay; details: MDA-MB-435, 48 h, read-out: Activity
# HOP-92 [5] = assay: Growth inhibition of human HOP92 cells assessed as cell growth at 3X10'-7 M after 48 hrs by sulforhodamine B assay; details: HOP-92, 48 h, read-out: Activity
# SK-OV-3 = assay: Growth inhibition of human SKOV3 cells assessed as cell growth at 3X10'-8 M after 48 hrs by sulforhodamine B assay; details: SK-OV-3, 48 h, read-out: Activity
# LOX IMVI [6] = assay: Growth inhibition of human LOXIMVI cells assessed as cell growth at 3X10'-8 M after 48 hrs by sulforhodamine B assay; details: read-out: Activity
# 786-0 [7] = assay: Growth inhibition of human 786-0 cells assessed as cell growth at 3X10'-8 M after 48 hrs by sulforhodamine B assay; details: 786-0, 48 h, read-out: Activity
# Malme-3M [8] = assay: Growth inhibition of human MALME-3M cells assessed as cell growth at 3X10'-8 M after 48 hrs by sulforhodamine B assay; details: read-out: Activity
# OVCAR-8 = assay: Growth inhibition of human OVCAR8 cells assessed as cell growth at 3X10'-6 M after 48 hrs by sulforhodamine B assay; details: OVCAR-8, 48 h, read-out: Activity
# SF-295 = assay: Growth inhibition of human SF295 cells assessed as cell growth at 3X10'-8 M after 48 hrs by sulforhodamine B assay; details: SF-295, 48 h, read-out: Activity
# HOP-92 [9] = assay: Growth inhibition of human HOP92 cells assessed as cell growth at 3X10'-5 M after 48 hrs by sulforhodamine B assay; details: HOP-92, 48 h, read-out: Activity
# [10] = Growth inhibition of human HCC2998 cells assessed as cell growth at 3X10'-6 M after 48 hrs by sulforhodamine B assay; details: HCC 2998, 48 h, read-out: Activity
# T47D = assay: Growth inhibition of human T47D cells assessed as cell growth at 3X10'-8 M after 48 hrs by sulforhodamine B assay; details: read-out: Activity
# [11] = Growth inhibition of human Hs 578T cells assessed as cell growth at 3X10'-6 M after 48 hrs by sulforhodamine B assay; details: read-out: Activity
# HCT-116 = assay: Growth inhibition of human HCT116 cells assessed as cell growth at 3X10'-6 M after 48 hrs by sulforhodamine B assay; details: HCT-116, 48 h, read-out: Activity
# SN12C = assay: Growth inhibition of human SN12C cells assessed as cell growth at 3X10'-5 M after 48 hrs by sulforhodamine B assay; details: read-out: Activity
# SK-MEL-2 [12] = assay: Growth inhibition of human SK-MEL-2 cells assessed as cell growth at 3X10'-7 M after 48 hrs by sulforhodamine B assay; details: SK-MEL-2, 48 h, read-out: Activity
# CAKI-1 = assay: Growth inhibition of human CAKI-1 cells assessed as cell growth at 3X10'-7 M after 48 hrs by sulforhodamine B assay; details: CAKI-1, 48 h, read-out: Activity
# SNB-19 = assay: Growth inhibition of human SNB19 cells assessed as cell growth at 3X10'-6 M after 48 hrs by sulforhodamine B assay; details: SNB-19, 48 h, read-out: Activity
# UACC-257 = assay: Growth inhibition of human UACC257 cells assessed as cell growth at 3X10'-7 M after 48 hrs by sulforhodamine B assay; details: UACC-257, 48 h, read-out: Activity
# PC-3 = assay: Growth inhibition of human PC3 cells assessed as cell growth at 3X10'-5 M after 48 hrs by sulforhodamine B assay; details: PC-3, 48 h, read-out: Activity
# OVCAR-4 = assay: Growth inhibition of human OVCAR4 cells assessed as cell growth at 3X10'-6 M after 48 hrs by sulforhodamine B assay; details: OVCAR-4, 48 h, read-out: Activity
# U-251 = assay: Growth inhibition of human U251 cells assessed as cell growth at 3X10'-5 M after 48 hrs by sulforhodamine B assay; details: U-251, 48 h, read-out: Activity
# SR = assay: Growth inhibition of human SR cells assessed as cell growth at 3X10'-7 M after 48 hrs by sulforhodamine B assay; details: read-out: Activity
# SW-620 = assay: Growth inhibition of human SW620 cells assessed as cell growth at 3X10'-5 M after 48 hrs by sulforhodamine B assay; details: SW-620, 48 h, read-out: Activity
# Malme-3M [13] = assay: Growth inhibition of human MALME-3M cells assessed as cell growth at 3X10'-6 M after 48 hrs by sulforhodamine B assay; details: read-out: Activity
# OVCAR-5 [14] = assay: Growth inhibition of human OVCAR5 cells assessed as cell growth at 3X10'-7 M after 48 hrs by sulforhodamine B assay; details: OVCAR-5, 48 h, read-out: Activity
# SK-MEL-2 [15] = assay: Growth inhibition of human SK-MEL-2 cells assessed as cell growth at 3X10'-5 M after 48 hrs by sulforhodamine B assay; details: SK-MEL-2, 48 h, read-out: Activity
# OVCAR-5 [16] = assay: Growth inhibition of human OVCAR5 cells assessed as cell growth at 3X10'-6 M after 48 hrs by sulforhodamine B assay; details: OVCAR-5, 48 h, read-out: Activity
# LOX IMVI [17] = assay: Growth inhibition of human LOXIMVI cells assessed as cell growth at 3X10'-9 M after 48 hrs by sulforhodamine B assay; details: read-out: Activity
compound,measurement,setting,value
O=C(Nc1cccc(-n2cc(-c3ccncc3)c(-c3ccc(Cl)c(O)c3)n2)c1)Nc1cccc(C(F)(F)F)c1,growth at 0.3 µM,COLO 205,109%
same,growth at 3 µM,NCI-H322M,63%
same,growth at 0.03 µM,UO-31,85%
same,growth at 0.3 µM,786-0 [1],99%
same,growth at 30 µM,Malme-3M [2],-10%
same,growth at 0.003 µM,HOP-92 [3],85%
same,growth at 30 µM,[4],7%
same,growth at 0.03 µM,SK-MEL-5,98%
same,growth at 30 µM,MCF7,2%
same,growth at 0.003 µM,MDA-MB-435,102%
same,growth at 0.3 µM,HOP-92 [5],65%
same,growth at 0.03 µM,SK-OV-3,96%
same,growth at 0.03 µM,LOX IMVI [6],95%
same,growth at 0.03 µM,786-0 [7],96%
same,growth at 0.03 µM,Malme-3M [8],82%
same,growth at 3 µM,OVCAR-8,31%
same,growth at 0.03 µM,SF-295,99%
same,growth at 30 µM,HOP-92 [9],-33%
same,growth at 3 µM,[10],76%
same,growth at 0.03 µM,T47D,95%
same,growth at 3 µM,[11],50%
same,growth at 3 µM,HCT-116,23%
same,growth at 30 µM,SN12C,16%
same,growth at 0.3 µM,SK-MEL-2 [12],107%
same,growth at 0.3 µM,CAKI-1,91%
same,growth at 3 µM,SNB-19,36%
same,growth at 0.3 µM,UACC-257,92%
same,growth at 30 µM,PC-3,-3%
same,growth at 3 µM,OVCAR-4,49%
same,growth at 30 µM,U-251,-48%
same,growth at 0.3 µM,SR,100%
same,growth at 30 µM,SW-620,8%
same,growth at 3 µM,Malme-3M [13],37%
same,growth at 0.3 µM,OVCAR-5 [14],105%
same,growth at 30 µM,SK-MEL-2 [15],-32%
same,growth at 3 µM,OVCAR-5 [16],97%
same,growth at 0.003 µM,LOX IMVI [17],97%
